From patent publication US9790169B2, “IDO inhibitors” (BRISTOL-MYERS SQUIBB COMPANY, priority 2015, dated 2017)

biological target: human IDO1 (Homo sapiens, UniProt P14902); assay: Assessment of human IDO-1 inhibitory activity in Hela cells (Interferon-gamma stimulated HeLa cells, Ehrlich reagent, absorbance 490 nm); type: cell-based; set-up: endogenous in cells; host or cells: HeLa cells stimulated with interferon-gamma; details: Hela Human IDO-1 cellular assay
Method: Exemplary compounds were tested for inhibition of IDO activity.
Assessment of Human IDO-1 Inhibitory Activity in Hela Cells
HeLa cells were seeded at 20,000 cells per 30 μL per well with RPMI/phenol red free media containing 10% FBS in a 384-well tissue culture plate (black with clear bottoms). 50 nL of compound was added to cells and incubated at 37° C. for one hour. 20 μL of the recombinant human Interferon-gamma (R&D System, Cat. #285-IF, at final concentration of 10 ng/ml) or recombinant murine Interferon-gamma (PEPROTECH® Inc., Cat. #315-05, final concentration of 5 ng/ml) was added to activate IDO signaling. The cells were incubated for 18 hours in 37° C. incubator with 5% CO2.
Compound treatment was stopped by adding 5 μl trichloroacetic acid to a final concentration of 3%. Subsequently, the cell plate was further incubated at 50° C. for 30 minute. An equal volume supernatant (20 μL) and 2% (w/v) Ehrlich reagent (4-dimethylaminobenzaldehyde) in glacial acetic acid were mixed in a new clear bottom 384-well plate. This plate was incubated at room temperature for 30 minutes. Absorbance at 490 nm was measured on Envision plate reader.
Compound IC50 values were calculated using counts from unstimulated (no INF-gamma treatment) wells as 100% inhibition. INF-gamma treatment without compound treatment as 0% inhibition.

Sequence of human IDO1 (P14902 whole entry): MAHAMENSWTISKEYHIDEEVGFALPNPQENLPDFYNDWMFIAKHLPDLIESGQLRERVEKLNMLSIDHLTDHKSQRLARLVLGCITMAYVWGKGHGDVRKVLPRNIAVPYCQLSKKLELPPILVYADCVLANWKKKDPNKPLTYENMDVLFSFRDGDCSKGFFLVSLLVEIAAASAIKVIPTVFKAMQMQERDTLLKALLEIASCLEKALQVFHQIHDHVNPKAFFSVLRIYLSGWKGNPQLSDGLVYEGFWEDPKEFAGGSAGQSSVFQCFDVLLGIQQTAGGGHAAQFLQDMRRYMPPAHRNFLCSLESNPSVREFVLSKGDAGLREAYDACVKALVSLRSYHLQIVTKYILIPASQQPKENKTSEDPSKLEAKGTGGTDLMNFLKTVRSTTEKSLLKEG

SMILES | IC50 [nM]
CCCN(c1ccc(C(COC)CC(=O)O)cc1Nc1ccc(Cl)cc1)C1CCS(=O)(=O)CC1 (single isomer, unassigned) [Example 185, 3-(3-((4-chlorophenyl)amino)-4-((1,1-dioxidotetrahydro-2H-thiopyran-4-yl)(propyl)amino)phenyl)-4-methoxybutanoic acid] | < 5
C[C@@H]1CN(c2ccc(C(CC(=O)O)C3CC3)cc2Nc2ccc(C#N)cc2)C[C@H](C)O1 (single isomer, unassigned) [Example 243] | < 50
C[C@@H]1CN(c2ccc(C(CC(=O)O)C3CC3)cc2Nc2ccc(Cl)cc2)C[C@H](C)O1 (single isomer, unassigned) [Example 244] | < 50
COc1ccc(Nc2cc(C(CC(=O)O)C3CC3)ccc2N2C[C@@H](C)O[C@@H](C)C2)cn1 (single isomer, unassigned) [Example 246] | > 50
C[C@@H]1CN(c2ccc(C(CC(=O)O)C3CC3)cc2Nc2ccc(C#N)cc2)C[C@H](C)O1 (single isomer, unassigned) [Example 247] | > 50
Cc1ccc(NC(=O)Nc2cc(C(CC(=O)O)C3CC3)ccc2N2C[C@@H](C)O[C@@H](C)C2)cc1 (single isomer, unassigned) [Example 251 Enantiomer 1] | > 50
C[C@@H]1CN(c2ccc(C(CC(=O)O)C3CC3)cc2NC(=O)Nc2ccc(Cl)cc2F)C[C@H](C)O1 (single isomer, unassigned) [Example 252] | > 50
CCN(c1ccc(C(CC(=O)O)C2CC2)cc1NC(=O)Nc1ccc(C#N)cc1)C1CCOCC1 (single isomer, unassigned) [Example 255 Enantiomer 1, 3-(3-(3-(4-Cyanophenyl)ureido)-4-(ethyl(tetrahydro-2H-pyran-4-yl)amino)phenyl)-3-cyclopropylpropanoic acid] | > 50
CC[C@@H](CC(=O)O)c1ccc(N(CC2CC2)CC(C)(C)O)c(Nc2ccc(Cl)cc2)c1 (single isomer, unassigned) [Example 267] | < 5
CC[C@@H](CC(=O)O)c1ccc(N(CC2CC2)CC(C)(C)O)c(Nc2ccc(C#N)cc2)c1 (single isomer, unassigned) [Example 268] | < 5
CC[C@@H](CC(=O)O)c1ccc(N(CC2CC2)CC(C)(C)O)c(Nc2ccc(F)cc2)c1 (single isomer, unassigned) [Example 269] | < 50
CCC(CC(=O)O)c1ccc(N(CC(F)F)C2CCOCC2)c(Nc2ccc(Cl)cc2)c1 (single isomer, unassigned) [Example 318 Enantiomer 1, 3-(3-((4-Chlorophenyl)amino)-4-((2,2-difluoroethyl)(tetrahydro-2H-pyran-4-yl)amino)phenyl)pentanoic acid] | < 5
COCC(CC(=O)O)c1ccc(N(CC(F)F)C2CCOCC2)c(Nc2ccc(C#N)cc2)c1 (single isomer, unassigned) [Example 322, 3-(3-((4-cyanophenyl)amino)-4-((2,2-difluoroethyl)(tetrahydro-2H-pyran-4-yl)amino)phenyl)-4-methoxybutanoic acid] | < 5
CCN(c1ccc([C@@H](COC(C)C)CC(=O)O)cc1Nc1ccc(C#N)cc1)C1CCOCC1 (single isomer, unassigned) [Example 324] | < 50
CCN(c1ccc([C@H](COC(C)C)CC(=O)O)cc1Nc1ccc(C#N)cc1)C1CCOCC1 (single isomer, unassigned) [Example 329] | < 50
CCC(CC(=O)O)c1ccc(N(CC)C2CCS(=O)(=O)CC2)c(Nc2ccc(Cl)cc2)c1 (single isomer, unassigned) [Example 334 Enantiomer 1, 3-(3-((4-Chlorophenyl)amino)-4-((1,1-dioxidotetrahydro-2H-thiopyran-4-yl)(ethyl)amino)phenyl)pentanoic acid] | < 5
CCC(CC(=O)O)c1ccc(N(CC)C2CCS(=O)(=O)CC2)c(Nc2ccc(C#N)cc2)c1 (single isomer, unassigned) [Example 335, 3-(3-((4-cyanophenyl)amino)-4-((1,1-dioxidotetrahydro-2H-thiopyran-4-yl)(ethyl)amino)phenyl) pentanoic acid] | < 50
CCN(c1ccc(C(CC(=O)O)C2CC2)cc1Nc1ccc(Cl)cc1)C1CCS(=O)(=O)CC1 (single isomer, unassigned) [Example 339 Enantiomer 1, 3-(3-((4-Chlorophenyl)amino)-4-((1,1-dioxidotetrahydro-2H-thiopyran-4-yl)(ethyl)amino)phenyl)-3-cyclopropylpropanoic acid] | < 5
CCN(c1ccc(C(CC(=O)O)C2CC2)cc1Nc1ccc(OC)nc1)C1CCS(=O)(=O)CC1 (single isomer, unassigned) [Example 342, 3-cyclopropyl-3-(4-((1,1-dioxidotetrahydro-2H-thiopyran-4-yl)(ethyl)amino)-3-((6-methoxypyridin-3-yl)amino)phenyl)propanoic acid] | < 50
CCN(c1ccc(C(CC(=O)O)C2CC2)cc1Nc1ccc(F)cc1)C1CCS(=O)(=O)CC1 (single isomer, unassigned) [Example 343, 3-cyclopropyl-3-(4-((1,1-dioxidotetrahydro-2H-thiopyran-4-yl)(ethyl)amino)-3-((4-fluorophenyl)amino)phenyl) propanoic acid] | < 5
CCN(c1ccc([C@@H](COC)CC(=O)O)cc1Nc1ccc(C#N)cn1)C1CCOCC1 (single isomer, unassigned) [Example 352] | < 50
CCN(c1ccc([C@@H](COC)CC(=O)O)cc1Nc1ncc(Cl)cn1)C1CCOCC1 (single isomer, unassigned) [Example 357] | < 50
CCN(c1ccc([C@@H](COC)CC(=O)O)cc1Nc1ncc(F)cn1)C1CCOCC1 (single isomer, unassigned) [Example 359] | > 50
CCN(c1ccc([C@@H](COC)CC(=O)O)cc1Nc1cccc(OC(F)(F)C(F)F)c1)C1CCOCC1 (single isomer, unassigned) [Example 360] | > 50

Second part, the compound after the results:

IC50 [nM] | SMILES
< 5 | COCCN(c1ccc(C(COC)CC(=O)O)cc1Nc1ccc(Cl)cc1)C1CCOCC1 (single isomer, unassigned) [Example 256 Enantiomer 1, 3-(3-((4-Chlorophenyl)amino)-4-((2-methoxyethyl)(tetrahydro-2H-pyran-4-yl)amino)phenyl)-4-methoxybutanoic acid]
< 50 | COCCN(c1ccc(C(COC)CC(=O)O)cc1Nc1ccc(C#N)cc1)C1CCOCC1 (single isomer, unassigned) [Example 257, 3-(3-((4-cyanophenyl)amino)-4-((2-methoxyethyl)(tetrahydro-2H-pyran-4-yl)amino)phenyl)-4-methoxybutanoic acid]
< 50 | COCCN(c1ccc(C(COC)CC(=O)O)cc1Nc1ccc(F)cc1)C1CCOCC1 (single isomer, unassigned) [Example 258, 3-(3-((4-fluorophenyl)amino)-4-((2-methoxyethyl)(tetrahydro-2H-pyran-4-yl)amino)phenyl)-4-methoxybutanoic acid]
> 50 | COCCN(c1ccc(C(COC)CC(=O)O)cc1NC(=O)Nc1ccc(C)cc1)C1CCOCC1 (single isomer, unassigned) [Example 261 Enantiomer 1, 4-Methoxy-3-(4-((2-methoxyethyl)(tetrahydro-2H-pyran-4-yl)amino)-3-(3-(p-tolyl)ureido)phenyl)butanoic acid]
> 50 | COCCN(c1ccc(C(COC)CC(=O)O)cc1NC(=O)Nc1ccc(Cl)cc1F)C1CCOCC1 (single isomer, unassigned) [Example 262, 3-(3-(3-(4-chloro-2-fluorophenyl)ureido)-4-((2-methoxyethyl)(tetrahydro-2H-pyran-4-yl)amino)phenyl)-4-methoxybutanoic acid]
< 5 | COCC(CC(=O)O)c1ccc(N(CC(F)F)C2CCOCC2)c(Nc2ccc(Cl)cc2)c1 (single isomer, unassigned) [Example 321 Enantiomer 1, 3-(3-((4-Chlorophenyl)amino)-4-((2,2-difluoroethyl)(tetrahydro-2H-pyran-4-yl)amino)phenyl)-4-methoxybutanoic acid]
< 5 | CCN(c1ccc([C@@H](COC)CC(=O)O)cc1Nc1ccc(C#N)c(F)c1)C1CCOCC1 (single isomer, unassigned) [Example 353]
< 50 | CCN(c1ccc([C@@H](COC)CC(=O)O)cc1Nc1ccc(C#N)c(C)c1)C1CCOCC1 (single isomer, unassigned) [Example 354]
< 5 | CCN(c1ccc([C@@H](COC)CC(=O)O)cc1Nc1ccc(C#N)cc1F)C1CCOCC1 (single isomer, unassigned) [Example 355]
< 5 | CCN(c1ccc([C@@H](COC)CC(=O)O)cc1Nc1ccc(Cl)cn1)C1CCOCC1 (single isomer, unassigned) [Example 356]
< 50 | CCN(c1ccc([C@@H](COC)CC(=O)O)cc1Nc1ncc(F)cc1F)C1CCOCC1 (single isomer, unassigned) [Example 358]
< 5 | CCN(c1ccc([C@@H](COC)CC(=O)O)cc1Nc1ccc(Cl)cc1F)C1CCOCC1 (single isomer, unassigned) [Example 362]
< 50 | CCN(c1ccc([C@@H](COC)CC(=O)O)cc1Nc1ccc(F)cn1)C1CCOCC1 (single isomer, unassigned) [Example 363]
